Experimental data taken from PubChem BioAssay (NCI).
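Dose response: 5 concentrations. Exposure: 48 h. Format: 96-well plates. Endpoint: linear interpolation; highest concentration if not reached. Here, GI50 denotes the concentration required for 50% inhibition of growth. Definition used: TGI = concentration required for complete inhibition of growth.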

Assays:
Experiment in all cases: inhibition of tumour cell growth, NCI panel, 48 h
CCRF-CEM leukemia = system: CCRF-CEM leukemia
MDA-MB-435 = system: MDA-MB-435
SR leukemia = system: SR leukemia
SF-295 CNS = system: SF-295 CNS
MDA-MB-231 breast = system: MDA-MB-231 breast
HL-60(TB) leukemia = system: HL-60(TB) leukemia
A549 NSCLC = system: A549 NSCLC
A498 renal = system: A498 renal
SN12C renal = system: SN12C renal
786-0 renal = system: 786-0 renal
NCI-H460 lung = system: NCI-H460 lung
EKVX NSCLC = system: EKVX NSCLC
UACC-257 melanoma = system: UACC-257 melanoma
BT-549 breast = system: BT-549 breast
SK-MEL-5 melanoma = system: SK-MEL-5 melanoma
NCI-H522 lung = system: NCI-H522 lung
SF-539 CNS = system: SF-539 CNS
CAKI-1 renal = system: CAKI-1 renal
OVCAR-5 ovarian = system: OVCAR-5 ovarian
ACHN renal = system: ACHN renal
T-47D breast = system: T-47D breast
UACC-62 melanoma = system: UACC-62 melanoma
IGROV1 ovarian = system: IGROV1 ovarian
HOP-92 NSCLC = system: HOP-92 NSCLC
NCI/ADR-RES ovarian = system: NCI/ADR-RES ovarian
HCC-2998 colon = system: HCC-2998 colon
SW-620 colon = system: SW-620 colon
HCT-116 colon = system: HCT-116 colon
RPMI-8226 leukemia = system: RPMI-8226 leukemia
HOP-62 NSCLC = system: HOP-62 NSCLC
LOX IMVI melanoma = system: LOX IMVI melanoma
UO-31 renal = system: UO-31 renal
HS 578T breast = system: HS 578T breast
RXF 393 renal = system: RXF 393 renal
OVCAR-4 ovarian = system: OVCAR-4 ovarian
KM12 colon = system: KM12 colon
OVCAR-8 ovarian = system: OVCAR-8 ovarian
OVCAR-3 ovarian = system: OVCAR-3 ovarian
NCI-H226 lung = system: NCI-H226 lung
PC-3 prostate = system: PC-3 prostate
HT29 colon = system: HT29 colon
TK-10 renal = system: TK-10 renal
NCI-H23 lung = system: NCI-H23 lung
HCT-15 colon = system: HCT-15 colon
M14 melanoma = system: M14 melanoma
SK-MEL-28 melanoma = system: SK-MEL-28 melanoma
SK-OV-3 ovarian = system: SK-OV-3 ovarian
U251 CNS = system: U251 CNS
MALME-3M melanoma = system: MALME-3M melanoma
K-562 leukemia = system: K-562 leukemia
SF-268 CNS = system: SF-268 CNS
SNB-19 CNS = system: SNB-19 CNS
MCF7 breast = system: MCF7 breast
SNB-75 CNS = system: SNB-75 CNS
SK-MEL-2 melanoma = system: SK-MEL-2 melanoma
MDA-MB-468 breast = system: MDA-MB-468 breast
MOLT-4 leukemia = system: MOLT-4 leukemia
COLO 205 colon = system: COLO 205 colon
DU-145 prostate = system: DU-145 prostate

C=C1CCC2C3(C)COC(c4cccc(F)c4)OC3CCC2(C)C1C/C=C1/C(=O)OCC1O (stereo not drawn) gave a GI50 (CCRF-CEM leukemia) of 2.35 µM, a TGI (CCRF-CEM leukemia) of 7.34 µM and a GI50 (MDA-MB-435) of 2.61 µM. For the same molecule, the TGI (MDA-MB-435) was 9.71 µM, the GI50 (SR leukemia) was 3.52 µM and the TGI (SR leukemia) was 17.7 µM. It also gave a GI50 (SF-295 CNS) of 3.87 µM, a TGI (SF-295 CNS) of 15.1 µM and a GI50 (MDA-MB-231 breast) of 2.61 µM. For the same molecule, the TGI (MDA-MB-231 breast) was 7.25 µM, the GI50 (HL-60(TB) leukemia) was 1.98 µM and the TGI (HL-60(TB) leukemia) was 6.83 µM. It also gave a GI50 (A549 NSCLC) of 7.04 µM, a TGI (A549 NSCLC) of 22.7 µM and a GI50 (A498 renal) of 14.1 µM. It also gave a TGI (A498 renal) of 27.7 µM, a GI50 (SN12C renal) of 2.95 µM and a TGI (SN12C renal) of 9.4 µM. The GI50 (786-0 renal) was 2.69 µM, the TGI (786-0 renal) was 7.51 µM and the GI50 (NCI-H460 lung) was 4.03 µM. It also gave a TGI (NCI-H460 lung) of 18.6 µM, a GI50 (EKVX NSCLC) of 16.5 µM and a TGI (EKVX NSCLC) of 30.8 µM. For the same molecule, the GI50 (UACC-257 melanoma) was 5.51 µM, the TGI (UACC-257 melanoma) was 19.7 µM and the GI50 (BT-549 breast) was 2.7 µM. The TGI (BT-549 breast) was 7.09 µM, the GI50 (SK-MEL-5 melanoma) was 11 µM and the TGI (SK-MEL-5 melanoma) was 23 µM. It also gave a GI50 (NCI-H522 lung) of 1.71 µM, a TGI (NCI-H522 lung) of 4 µM and a GI50 (SF-539 CNS) of 1.96 µM. It also gave a TGI (SF-539 CNS) of 3.81 µM, a GI50 (CAKI-1 renal) of 7.43 µM and a TGI (CAKI-1 renal) of 20.2 µM. It also gave a GI50 (OVCAR-5 ovarian) of 4.04 µM, a TGI (OVCAR-5 ovarian) of 15.9 µM and a GI50 (ACHN renal) of 4.48 µM. The TGI (ACHN renal) was 15.8 µM, the GI50 (T-47D breast) was 3.61 µM and the TGI (T-47D breast) was 16 µM. It also gave a GI50 (UACC-62 melanoma) of 4.68 µM, a TGI (UACC-62 melanoma) of 16.9 µM and a GI50 (IGROV1 ovarian) of 10.3 µM. For the same molecule, the TGI (IGROV1 ovarian) was 23.2 µM, the GI50 (HOP-92 NSCLC) was 6.48 µM and the TGI (HOP-92 NSCLC) was 21.2 µM. The GI50 (NCI/ADR-RES ovarian) was 1.98 µM, the TGI (NCI/ADR-RES ovarian) was 4.08 µM and the GI50 (HCC-2998 colon) was 8.09 µM. It also gave a TGI (HCC-2998 colon) of 20.9 µM, a GI50 (SW-620 colon) of 1.48 µM and a TGI (SW-620 colon) of 3.26 µM. The GI50 (HCT-116 colon) was 1.85 µM, the TGI (HCT-116 colon) was 3.62 µM and the GI50 (RPMI-8226 leukemia) was 2.58 µM. For the same molecule, the TGI (RPMI-8226 leukemia) was 6.78 µM, the GI50 (HOP-62 NSCLC) was 17.3 µM and the TGI (HOP-62 NSCLC) was 31.6 µM. It also gave a GI50 (LOX IMVI melanoma) of 1.67 µM, a TGI (LOX IMVI melanoma) of 3.08 µM and a GI50 (UO-31 renal) of 5.14 µM. For the same molecule, the TGI (UO-31 renal) was 18.2 µM, the GI50 (HS 578T breast) was 4.62 µM and the TGI (HS 578T breast) was 39.7 µM. It also gave a GI50 (RXF 393 renal) of 5.88 µM, a TGI (RXF 393 renal) of 19.6 µM and a GI50 (OVCAR-4 ovarian) of 4.32 µM. It also gave a TGI (OVCAR-4 ovarian) of 18.3 µM, a GI50 (KM12 colon) of 3.92 µM and a TGI (KM12 colon) of 14.8 µM. The GI50 (OVCAR-8 ovarian) was 1.86 µM, the TGI (OVCAR-8 ovarian) was 4.27 µM and the GI50 (OVCAR-3 ovarian) was 1.87 µM. For the same molecule, the TGI (OVCAR-3 ovarian) was 4.08 µM, the GI50 (NCI-H226 lung) was 1.85 µM and the TGI (NCI-H226 lung) was 3.87 µM. It also gave a GI50 (PC-3 prostate) of 3.3 µM, a TGI (PC-3 prostate) of 15.3 µM and a GI50 (HT29 colon) of 2.19 µM. It also gave a TGI (HT29 colon) of 4.75 µM, a GI50 (TK-10 renal) of 14.8 µM and a TGI (TK-10 renal) of 28.2 µM. The GI50 (NCI-H23 lung) was 11 µM, the TGI (NCI-H23 lung) was 24.2 µM and the GI50 (HCT-15 colon) was 2.61 µM. The TGI (HCT-15 colon) was 8.15 µM, the GI50 (M14 melanoma) was 6.93 µM and the TGI (M14 melanoma) was 21.3 µM. It also gave a GI50 (SK-MEL-28 melanoma) of 5.58 µM, a TGI (SK-MEL-28 melanoma) of 18 µM and a GI50 (SK-OV-3 ovarian) of 16.1 µM. The TGI (SK-OV-3 ovarian) was 29.9 µM, the GI50 (U251 CNS) was 2.25 µM and the TGI (U251 CNS) was 6.24 µM. It also gave a GI50 (MALME-3M melanoma) of 13.2 µM, a TGI (MALME-3M melanoma) of 26.2 µM and a GI50 (K-562 leukemia) of 3.39 µM. The TGI (K-562 leukemia) was 16.1 µM, the GI50 (SF-268 CNS) was 6 µM and the TGI (SF-268 CNS) was 19.8 µM. The GI50 (SNB-19 CNS) was 13.1 µM, the TGI (SNB-19 CNS) was 25.9 µM and the GI50 (MCF7 breast) was 2.25 µM. It also gave a TGI (MCF7 breast) of 7.71 µM, a GI50 (SNB-75 CNS) of 2.13 µM and a TGI (SNB-75 CNS) of 10.8 µM. It also gave a GI50 (SK-MEL-2 melanoma) of 5.95 µM, a TGI (SK-MEL-2 melanoma) of 19.1 µM and a GI50 (MDA-MB-468 breast) of 2.11 µM. The TGI (MDA-MB-468 breast) was 6.28 µM, the GI50 (MOLT-4 leukemia) was 3.24 µM and the TGI (MOLT-4 leukemia) was 12 µM. It also gave a GI50 (COLO 205 colon) of 4.09 µM, a TGI (COLO 205 colon) of 15.6 µM and a GI50 (DU-145 prostate) of 6.21 µM. The TGI (DU-145 prostate) was 18.5 µM.
